{"source": "patent US20040039211A1", "about": "“Tetrapyrroles” (DUKE UNIVERSITY AND NATIONAL JEWISH MEDICAL AND RESEARCH …, priority 2000, published 2004)", "key": {"[1]": {"assay": "Degradation by H2O2 followed by uv/vis spectroscopy", "type": "physicochemical", "conditions": "pH 7.8; for fraction degraded by H2O2: 4.4 h, 60 μM", "from_the_text": "Uv/vis Spectroscopy. […] Also the effects of EDTA, H2O2, and the methanol/water ratio on the stability of the manganese(III) complex were examined. […] 79:699 (1960)). When needed the biliverdin and biliverdin dimethylester as well as their reduced forms bilirubin and bilirubin dimethylester were studied. At μM concentrations, manganese(III) and iron(III) porphyrins are degraded by H2O2 in aqueous solution. pH 7.8 (Batinic-Haberle et al, Inorg. Chem. 38:4011 (1999), Everett et al, J. Trans. Faraday Soc. 49:410 (1953)). […] The reaction was followed in 90/10, v/v methanouaqueous solution at pH^* 7.9. […] The uv/vis spectroscopy indicated degradation via the reduction of biliverdin to bilirubin followed by loss of metal (Gray et al, J. Chem. Soc. 2276 (1961); Kuenzle et al, Biochem. J. 130:1147 (1972); […], Nature 899 (1962)). The interaction of biliverdin and bilirubin with H2O, was also followed in 0.05 M tris buffer, pH 7.8. As observed for its metal complex, biliverdin undergoes reduction by H2O2 via bilirubin. Under pseudo-first order conditions (6 mM to 60 mM H2O2, 60 μM biliverdin), the second-order rate constant was k=3×10^-3 M^-1 s^-1. Bilirubin is more resistant to H2O2 than biliverdin or its metal complex. The disappearance of bilirubin was followed at 435 nm (Gray et al, J. Chem. Soc. 2268 (1961)). Under conditions given above and at 60 mM H2O2, about 40% of the biliverdin and 14% of bilirubin was degraded within 4.4 hours, and about 14% of the complex was degraded inside 80 min."}, "[2]": {"assay": "Hydrolysis / dissociation of the complex in methanol/aqueous or water solution", "type": "physicochemical", "conditions": "water", "protocol": "Uv/vis Spectroscopy. […] Also the effects of EDTA, H2O2, and the methanol/water ratio on the stability of the manganese(III) complex were examined. […] […] 79:699 (1960)). When needed the biliverdin and biliverdin dimethylester as well as their reduced forms bilirubin and bilirubin dimethylester were studied. […] In a week, at 25° C., only 14% of the complex dissociated. When the water content was increased to 43%, half the complex dissociated in a week."}, "[3]": {"conditions": "Ref 4, cited from earlier work"}, "[4]": {"conditions": "Mn(III)/Mn(II) couple; aqueous solution (pH 7.8, 0.1 M NaCl); Ref 4; cited from earlier work"}, "[5]": {"assay": "Cyclic voltammetry, metal-centered redox potential", "type": "physicochemical", "conditions": "Mn(III)/Mn(II) couple; for E1/2, V vs Ag/AgCl: 90/10 (v/v) methanol/aqueous solution, pH* 7.9", "protocol": "Manganese(III) Salen. The compound was prepared by the published procedure (Boucher, J. lnorg. Nucl. Chem. 36:531 (1974)). The uv/vis in water: ε235=3.70×10^4 cm^−1 M^−1, ε279=1.70×10^4 cm^−1 M^−1, ε397=4.60×10^3 cm^−M^−1. The elemental analysis: Anal. Calcd for Mn^IIIsalenCl, C16H14N2O2MnCl: C, 53.88; H, 3.96; N; 7.85. Found: C, 54.02; H, 4.06; N, 7.85. […] Based on the E1/2 of Mn^IIITM-2-PyP^5+, ferrocenemethanol and of K3Fe(CN)6 in water and methanol, the redox potential of Mn^III salen^+ in water was calculated to be E1/2=−0.13 V vs NHE.\nElectrochemistry of the Manganese(III) Biliverdin Dimethylester. Measurements were made using a CH Instruments model 600 voltammetric analyzer as described previously(Batinic-Haberle et al, Inorg. Chem. 38:4011 (1999)). A three-electrode system in a small volume (0.5-3.0 mL), with a 3 mm diameter glassy carbon button working electrode (Bioanalytical Systems), Ag/AgCl reference electrode (3 M NaCl, Bioanalytical Systems), and a Pt wire (0.5 mm) as auxiliary electrode, were used. The cyclic votammetry was performed on 0.5 mM (per manganese) methanol/aqueous (90/10, v/v) solutions of the compounds investigated. The ionic strength was kept at 0.10 M (NaCl), and 0.05 M tris buffer was used for pH^* adjustment. For calibration purposes, compounds of different hydrophilicities, […], (Kolthof et al, J. Phys. Chem. 39:945 (1935)) ferrocenemethanol and Mn^IIITM-2-PyP^5+ were studied in both aqueous and methanol/aqueous (90/10, v/v) solutions (I=0.10 M NaCl, 0.05 M tris buffer, pH^* 7.9). In all cases the measured E1/2 was 170 mV more positive in methanolic than in aqueous solution and this value was used to predict the redox potential in aqueous solution from measurement in methanol/aqueous solution."}, "[6]": {"assay": "SOD activity, xanthine oxidase/cytochrome c method", "type": "biochemical", "conditions": "absence of EDTA"}, "[7]": {"assay": "SOD activity, xanthine oxidase/cytochrome c method", "type": "biochemical", "conditions": "for SOD-like activity (in words): 0.05 M phosphate buffer, pH 7.8, 0.1 mM EDTA", "protocol": "FIG. 12. […] The v0 is the rate of reduction of 10 μM cytochrome c by O2. The vi is the rate of reduction of cytochome c inhibited by the porphyrin catalyst in the presence of 0.1 mM EDTA in 0.05 M tris buffer at pH 7.8. 40 μM xanthine. ˜2 nM xanthine oxidase at 25° C. The total volume of the assay solution is 3 mL.\nSOD Activity. Catalysis of the dismutating of O2 in vitro was followed by the xanthine oxidase/cytochrome c method (McCord et al, J. Biol. Chem. 244:6049 (1969)).\nDismutation of superoxide anion, O2^−. Assays were conducted in 0.05 M aqueous phosphate buffer, pH 7.8, 0.1 mM EDTA, ±15 μg/mL of catalase, ±albumin. Rate constants for the reaction with O2^−were based upon the competition of the compounds with cytochrome c.\n(§1) Two metallotetrapyrroles were tested for antioxidant activity, in vitro. In particular, the compounds were assayed for their ability to dismutate superoxide in the indirect method that utilizes xanthine and xanthine oxidase to generate superoxide and cytochrome c reduction as indicator of superoxide flux. […] The compounds were also assayed for their ability to prevent lipid peroxidation of rat brain homogenates by iron and ascorbate. The mixture of iron and ascorbate generates reactive oxygen species that oxidize biological lipids and these oxidized lipids can be detected as species that react with thiobarbituric acid (TBARS).\na) SOD activity determined using a xanthine oxidase/cytochrome c assay"}, "[8]": {"conditions": "H4BV^+; literature (Gray et al; Kuenzle et al; O'Carra); cited from earlier work"}, "[9]": {"tested_on": "rat brain homogenates", "assay": "Lipid peroxidation of rat brain homogenates by iron/ascorbate (TBARS)", "type": "biochemical", "conditions": "concentration that reduced lipid peroxidation by one-half", "protocol": "The ability of mimetics to inhibit lipid peroxidation can be assessed as described by Day et al, Free Rad. Biol. Med. 26:730 (1990). Iron and ascorbate can be used to initiate lipid peroxidation in tissue homogenates and the formation of thiobarbituric acid reactive species (T BARS) measured.\nas §1, with “(TBARS). Both compounds could inhibit the formation of TBARS and this ability correlated with their superoxide dismutase (SOD) activity (Table 5).” for “(TBARS).”\nb) Lipid peroxidation was initiated in rat brain homogenates with iron/ascorbate and the IC50 is the concentration of compound that reduced lipid peroxidation by one-half."}, "[10]": {"assay": "pH* titration / protonation of the ligand", "type": "physicochemical", "conditions": "90/10 methanol/aqueous solution, 0.01 M tris and Pipes buffer", "protocol": "Uv/vis Spectroscopy. […] Also the effects of EDTA, H2O2, and the methanol/water ratio on the stability of the manganese(III) complex were examined. […] Tris and Pipes buffers along with 1.0 M methanol/aqueous (90/10) solution of HCl were used for pH^* adjustments in methanol/aqueous solutions. The pH^* readings were measured on an Oakton pH-Meter equipped with a Denver Instruments combination glass electrode that was calibrated in methanol/water (90/10, v/v) buffer solutions: 10 mM oxalic acid/10 mM ammonium oxalate (pH^*=3.59) and 10 mM succinic acid/lithium hydrogen succinate (pH^*=6.55) (De Ligny et al. A. Rec. Trav. Chim. Pays-Bas 79:699 (1960)). When needed the biliverdin and biliverdin dimethylester as well as their reduced forms bilirubin and bilirubin dimethylester were studied.\nUv/Vis Spectroscopy. At pH^* 7.4 biliverdin dimethylester is in a fully deprotonated form, BVDME^3−. […] Carboxyl groups are separated from the main chromophores by two methylene groups, so that their ionization is not detectable spectrophotometrically. Thus the spectra of biliverdin and its ester are the same (Gray et al, J. Chem. Soc. 2276 (1961); Kuenzle et al. Biochem. J. 130:1147 (1972); O'Carra, Nature 899 (1962)). […] The kinetic trace recorded upon fast mixing of the 30 μM BVDME^3− with 75 μM or 150 μM MnCl2, fits to a single-exponential equation with a zero intercept. […]"}, "[11]": {"tested_on": "SOD-deficient E. coli JI132", "assay": "Aerobic growth of SOD-deficient E. coli in minimal medium", "type": "cell-based", "conditions": "minimal (five amino acids) medium", "protocol": "FIG. 13. […] The 20 mM ethanolic/albumin solution of compound was diluted into the medium. Also the growth of SOD-deficient E. coli was followed in the presence of 0.15% ethanol only (squares).\nSOD activity can be monitored in the presence and absence of EDTA using the method of McCord and Fridovich (J. Biol. Chem. 244:6049 (1969)). The efficacy of a mimetic can also be determined by measuring the effect of the mimetic on the aerobic growth of a SOD null E. coli strain versus a parent strain. Specifically, parental E. coli (AB1157) and SOD null E. coli. […]\nEffects on E. coli. E. coli strains AB1157 (SOD-proficient, wild type) and JI132 (SOD-deficient, sodAsodB) were obtained from J. A. Imlay (Imlay et al, J. Bacteriol. 169:2967 (1987)). […] Cultures were treated as previously described (Faulkner et al, J. Biol. Chem. 269:23471 (1994); Benov et al, J. Biol. Chem. 273:10313 (1998)). Due to the low water solubility, the compounds were solubilized with albumin in medium at a 1:1 molar ratio. Albumin itself had no effect on growth in the concentration range employed. Since methanol was toxic to the SOD-deficient strain of E. coli even when present in medium at 0.15%, the stock solutions of the compounds were prepared in ethanol."}}, "note": "Read-outs that look alike come from different tables or passages of the source. Marks after values point to notes of the source that are not given here."}
{"compound": "C=CC1=C(C)/C(=C/c2[nH]c(Cc3[nH]c(/C=C4\\NC(=O)C(C)=C4C=C)c(C)c3CCC(=O)O)c(CCC(=O)O)c2C)NC1=O", "note": "[bilirubin, bilirubin IX]", "values": [{"measurement": "fraction degraded by H2O2", "setting": "[1]", "value": "about 14%"}]}
{"compound": "C=CC1=C(C)C2=CC3=NC(=Cc4c(CCC(=O)O)c(C)c5[n]4[Mn]([O]C4=NC(=Cc6c(C)c(CCC(=O)O)c7[n]6[Mn]([O]C6=NC(=C5)C(C=C)=C6C)[N]5C(=O)C(C=C)=C(C)C5=CC5=NC(=C7)C(CCC(=O)O)=C5C)C(C=C)=C4C)[N]2C1=O)C(CCC(=O)O)=C3C", "note": "[(Mn^IIIBV)2, Mn^III Biliverdin]", "values": [{"measurement": "stability in water solution", "setting": "[2]", "value": "lacks adequate stability in water solution"}]}
{"compound": "manganese(III) tetrakis(N-methylpyridinium-2-yl)porphyrin [Mn^III/IITM-2-PyP^5−4−]", "values": [{"measurement": "kcat, O2^− dismutation", "setting": "[3]; 25° C.", "value": "6.0 × 10^7a M^−1 s^−1"}, {"measurement": "SOD specific activity", "setting": "[3]", "value": "8.500^a U/mg"}, {"measurement": "E1/2, V vs NHE", "setting": "[4]", "value": "−0.22", "unit": "V vs NHE"}, {"measurement": "E1/2, V vs Ag/AgCl", "setting": "[5]", "value": "−0.12", "unit": "V vs Ag/AgCl"}]}
{"compound": "[Cl-].[Mn+3].[O-]c1ccccc1C=NCCN=Cc1ccccc1[O-]", "note": "[Mn^III/IIsalen^−/0, Manganese(III) Salen, reference compound]", "values": [{"measurement": "SOD specific activity", "setting": "[6]", "value": "700^f U/mg"}, {"measurement": "kcat, O2^− dismutation", "setting": "[6]; 25° C.", "value": "6.0 × 10^5f M^−1 s^−1"}, {"measurement": "SOD-like activity (in words)", "setting": "[7]", "value": "observed only in the absence of chelator"}, {"measurement": "E1/2, V vs Ag/AgCl", "setting": "[5]", "value": "−0.23", "unit": "V vs Ag/AgCl"}, {"measurement": "E1/2, V vs NHE", "setting": "[5]; extrapolated/calculated redox potential in aqueous solution", "value": "−0.13", "unit": "V vs NHE"}]}
{"compound": "C=CC1=C(C)/C(=C/C2=NC(=C\\c3[nH]c(/C=C4\\NC(=O)C(C)=C4C=C)c(C)c3CCC(=O)O)/C(CCC(=O)O)=C2C)NC1=O", "note": "[biliverdin, biliverdin IX]", "values": [{"measurement": "second-order rate constant k of reaction with H2O2", "setting": "[1]; 0.05 M tris buffer, 6 mM to 60 mM H2O2, 60 μM", "value": 0.003, "unit": "M⁻¹ s⁻¹"}, {"measurement": "fraction degraded by H2O2", "setting": "[1]", "value": "about 40%"}, {"measurement": "SOD-like activity (in words)", "setting": "[7]", "value": "Neither biliverdin nor bilirubin showed any observable SOD-like activity"}, {"measurement": "pKa", "setting": "[8]", "value": "~3"}]}
{"compound": "manganese (III) bilirubin ditaurate [MnBRDT]", "values": [{"measurement": "SOD Activity", "setting": "[7]; xanthine oxidase/cytochrome c assay", "value": 6.2, "unit": "USOD/mg"}, {"measurement": "IC50", "setting": "[9]", "value": 70, "unit": "µM"}]}
{"compound": "C=CC1=C(C)/C(=C/C2=NC(=C\\c3[nH]c(/C=C4/NC(=O)C(C)=C4C=C)c(C)c3CCC(=O)OC)/C(CCC(=O)OC)=C2C)NC1=O", "note": "[BVDME^3−, Biliverdin IX dimethylester, reference compound]", "values": [{"measurement": "pH* region in which protonation occurs", "setting": "[10]", "value": "below 4"}, {"measurement": "effect on SOD-deficient E. coli growing under aerobic conditions (in words)", "setting": "[11]", "value": "neither beneficial nor toxic"}]}
